The values below come from patent publication US20240207304A1, “Combination Therapies Comprising C/EBP Alpha saRNA” (MiNA Therapeutics Limited, priority 2021, published 2024).

The test system of the test is NAFLD and IR genes. Put plainly: Effects on NAFLD and IR gene expression in the liver. The source says:
Abbreviations in Table 4-1 and Table 4-2: NAFLD: non-alcoholic fatty liver disease; IR: insulin resistance; DNL: de novo lipogenesis; FA: fatty acid; TG: triglycerides; LPL: lipoprotein lipase; HP: hepatic lipase; CHOL: cholesterol.

In the case of `O=C1[C@H](CC[C@H](O)c2ccc(F)cc2)[C@@H](c2ccc(O)cc2)N1c1ccc(F)cc1` [Ezetimibe], the “Effect on ACACA (ACC1)” value is reported as “minor up”, the “Effect on ACACB (ACC2)” value was “up”, the “Effect on APOC3” value is given as “down” and the “Effect on CD36” value is listed as “minor down”. Further, the “Effect on ChREBP (MLX1PL)” value is “up”, the “Effect on DGAT2” value is on record as “minor down”, the “Effect on FAS” value was “down” and the “Effect on LDLR” value is on record as “minor down”. Also, the “Effect on MTP (MTTP1)” value is given as “up”, the “Effect on PPARα” value is “up”, the “Effect on PPARγ” value is “up” and the “Effect on PPARγ-CoA 1α” value was “up”. Further, the “Effect on PPARγ-CoA 1β (PERC)” value is listed as “up”, the “Effect on SREBP-1c” value was “up” and the “Effect on mTOR” value is “no change”.
